From PMC11813147, “Bioactivity assessment of peptides derived from salted jellyfish (Rhopilema hispidum) byproducts” (PLOS ONE, 2025)

Tests used:
[1] = system: angiotensin I-converting enzyme (ACE); test: ACE inhibitory activity assay (fluorometric ACE activity assay kit); type: biochemical
Procedure: The ACE inhibitory activity assay was performed following the method outlined by Batista et al., with slight modifications, using a fluorometric angiotensin I-converting enzyme (ACE) activity assay kit from Sigma-Aldrich (catalog number CS0002), Burlington, Massachusetts, USA. In summary, 10 µ L of the sample (1 mg/mL for the peptide sample and 50 µg/mL for ramipril) was combined with 40 µ L of the ACE solution (CS0002B) in 96-well flat-bottom black plates at 37 °C for 5 min. Next, 50 µ L of the substrate solution (CS0002C) was added to this mixture to initiate the reaction. A fluorescence multiwell plate reader was used to monitor the changes in fluorescence. The sample’s fluorescence was measured every min for 5 min, with excitation at 320 nm and emission at 405 nm. All reagents, except the test sample, were prepared to assess the ACE positive control activity. A kit standard solution (CS0002D) was diluted with assay buffer (CS0002A) to create different concentrations (nmol) of the standard solution, allowing generation of a standard curve. The slope of the standard curve (RFU/nmol) and the slope of the sample kinetic curve were utilized to calculate the ACE activity using the following equation (3):
ACEactivitynmol/min=Slopesample/Slopestandard×DF (3)
Where Slopesample refers to the slope of the blank-subtracted sample curve (RFU/min), Slopestandard refers to the slope of the blank-subtracted standard curve (RFU/nmol), DF is the dilution factor, and 0.1 nmol/min is equivalent to […].
In this study, the results of ACE inhibitory activity are expressed as percentages. The ACE inhibitory activity (%) was calculated using the following equation (4):
ACEinhibitoryactivity%=ACEPC–ACES/ACEPC×100 (4)
Where ACEPC represents the ACE activity of the positive control, and ACES denotes the ACE activity of the sample.

[2] = DPPH radical scavenging assay; type: biochemical; conditions: supplement tables; for DPPH, mean±SD: n = 3
Procedure: The DPPH radical scavenging activity of the sample was assessed following a modified protocol based on a previous study. In each well of a 96-well plate, 10 μL of the sample was added, followed by 190 μL of 0.1 mM DPPH solution in 70% ethanol. The mixture was then incubated at room temperature in the dark for 30 min. After the incubation period, the absorbance of the mixture was measured at 517 nm. The DPPH radical scavenging activity was calculated using the following equation (1):
DPPHradicalscavengingactivity%=Acontrol–Asample/Acontrol×100 (1)
In this equation, Acontrol represents the absorbance of a control solution containing all reagents except for the test samples, while Asample is the absorbance of the mixture (the sample combined with 0.1 mM DPPH). To determine the Trolox equivalent antioxidant capacity (TEAC), a Trolox standard curve was utilized. The results were expressed as millimoles of Trolox equivalents per milligram of protein (mM TE/mg protein).

[3] = ABTS radical scavenging assay; type: biochemical; conditions: supplement tables; for ABTS, mean±SD: n = 3
Procedure: The ABTS radical scavenging activity of the sample was measured using a method adapted from Mirzaei et al.. The ABTS radical was generated by mixing 7 mM ABTS with 2.45 mM potassium persulfate in a 1:1 ratio and incubating the mixture in the dark at room temperature for 12 to 16 h. The resulting solution was then diluted to achieve an absorbance of 0.74 ± 0.03 at 734 nm, using deionized water for adjustments. Next, 10 μL of the sample was added to 190 μL of the ABTS solution. The mixture was incubated in the dark for 7 min, after which the absorbance was measured at 734 nm. The ABTS radical scavenging activity (%) was calculated using the following equation (2):
ABTSradicalscavengingactivity%=Acontrol–Asample/Acontrol×100 (2)
In this equation, Acontrol refers to the absorbance of the control solution (which contains all reagents except the test samples), while Asample refers to the absorbance of the mixture containing the sample and the ABTS solution. To determine the Trolox equivalent antioxidant capacity (TEAC), a Trolox standard curve was used, and the results were expressed as millimoles of Trolox equivalents per milligram of protein (mM TE/mg protein).

[4] = Ferric reducing antioxidant power (FRAP) assay; type: biochemical
Procedure: The FRAP assay was conducted following the method outlined by Rumpf et al.. The FRAP solution was prepared by mixing 300 mM acetate buffer (pH 3.6), 10 mM TPTZ (2,4,6-Tris(2-pyridyl)-s-triazine) in 40 mM hydrochloric acid, and 20 mM FeCl3 in a ratio of 10:1:1. In a 96-well plate, 10 μL of the sample was combined with 190 μL of the FRAP solution and incubated in the dark for 15 min. The absorbance of the mixture was then measured at 593 nm. FeSO4 was used to create the standard curve, and the results were expressed as millimoles of FeSO4 equivalent per milligram of protein (mM FeSO4/mg protein).

RAW 264.7 [5] = test: Anti-inflammation assay: released NO in LPS-stimulated RAW 264.7 (Griess); type: cell-based, Murine; conditions: then 1 µg/mL LPS 24 h; for Released NO: peptide 10 µg/mL 1 h; for Released NO, mean±SD: peptide 10 µg/mL pre-treatment 1 h, Griess reagent, n = 3
Procedure: (§1) Murine macrophage cells (RAW 264.7; ATCC TIB-71™) were cultured in Dulbecco’s Modified Eagle’s Medium (DMEM) that was supplemented with 10% heat-inactivated fetal bovine serum (FBS) and 1% antibiotic solution. Colorectal adenocarcinoma cells (CaCo-2; ATCC HTB 37™) were cultured in Eagle’s Minimum Essential Medium (EMEM), also supplemented with 10% heat-inactivated FBS and 1% antibiotic solution. Both cell types were maintained in a humidified incubator with 5% CO2. The cell culture medium was refreshed every three days.
The anti-inflammation assay was conducted following the method described by Barzkar et al. with slight modifications. RAW 264.7 (1 x 10^5 cells) was seeded into a 96-well plate to allow for cell attachment. After 24 h, the cells were pre-treated with fresh medium containing peptide samples at a concentration of 10 µg/mL for 1 h. Subsequently, the treated cells were stimulated with 1 µg/mL lipopolysaccharide (LPS) for an additional 24 h. Unstimulated cells were included as a negative control. At the end of the treatment period, the conditioned medium was collected for the determination of released nitric oxide (NO). Griess’s reagent (Promega) was utilized to measure the NO concentration, following the manufacturer’s instructions. A NO calibration curve was generated to quantify the released NO in the conditioned medium.

RAW 264.7 [6] = test: Cytotoxicity assessment (MTT); type: cell-based, Murine; conditions: peptide 10 µg/mL, 72 h
Procedure: as §1
Cytotoxicity assessment was performed following the method described by Yang et al., with slight modifications. RAW 264.7 was seeded with 1 x 10^5 cells in a 96-well plate with an appropriate cell culture medium. After allowing the cells to attach, the medium was replaced with a fresh cell culture medium containing the peptide samples at a concentration of 10 µg/mL. The treated cells were incubated for an additional 72 h. At the designated time, fresh medium was added, which included 3-(4,5-dimethylthiazol-2-yl)-2,5-diphenyltetrazolium bromide (MTT) at a concentration of 0.5 mg/mL. After 3 h, formazan crystals were observed. The medium was then removed, and the crystals were dissolved in 100% dimethyl sulfoxide (DMSO). A microplate reader (Synergy HTX; Biotek, Multi-Mode Reader, Winooski, VT, USA) was utilized to measure the absorbance at 570 nm (measurement wavelength) and 630 nm (reference wavelength). The percentage of cell viability was calculated relative to untreated cells using the following equation (5):
Cellviability%=ODtreatment–ODblank/ODuntreated–ODblank×100 (5)
Where ODtreatment is the absorbance of the treated sample, ODuntreated is the absorbance of the untreated sample, and ODblank is the absorbance from wells without treated and untreated samples.

[7] = 10 µL sample + 190 µL FRAP solution, 15 min dark, 593 nm, FeSO4 standard curve, mean ± SD, n = 3, SD
[8] = peptide sample 1 mg/mL, 37 °C, fluorescence ex 320/em 405 nm, mean ± SD, n = 3, SD
[9] = peptide sample 1 mg/mL, replicate 1
[10] = peptide sample 1 mg/mL, replicate 2
[11] = peptide sample 1 mg/mL, replicate 3

Row | Compound | DPPH, mean±SD [2] | DPPH ([2]; replicate 1) [TE/mg protein] | DPPH ([2]; replicate 2) [TE/mg protein] | DPPH ([2]; replicate 3) [TE/mg protein] | ABTS, mean±SD [3] | ABTS ([3]; replicate 1) [TE/mg protein] | ABTS ([3]; replicate 2) [TE/mg protein] | ABTS ([3]; replicate 3) [TE/mg protein] | FRAP ([4]; supplement tables, replicate 1) [mM FeSO4/mg protein] | FRAP ([4]; supplement tables, replicate 2) [mM FeSO4/mg protein] | FRAP ([4]; supplement tables, replicate 3) [mM FeSO4/mg protein] | ACE inhibitory activity [1, 9] [%] | ACE inhibitory activity [1, 10] [%] | ACE inhibitory activity [1, 11] [%] | Released NO (RAW 264.7 [5]; replicate 1) [µM] | Released NO (RAW 264.7 [5]; replicate 2) [µM] | Released NO (RAW 264.7 [5]; replicate 3) [µM] | Released NO, mean±SD (RAW 264.7 [5]) | Cell viability (RAW 264.7 [6]; replicate 1) [%] | Cell viability (RAW 264.7 [6]; replicate 2) [%] | other results
1 | CCOC(=O)[C@H](CCc1ccccc1)N[C@@H](C)C(=O)N1[C@H](C(=O)O)C[C@@H]2CCC[C@@H]21 [Ramipril, ramipril, reference compound] | – | – | – | – | – | – | – | – | – | – | – | – | – | – | – | – | – | – | – | – | ACE inhibitory activity, mean±SD ([1]; ramipril 50 µg/mL, mean ± SD, n = 3, SD): 23.23±0.44^G %; ACE inhibitory activity, mean±SD ([1]; ramipril 50 µg/mL, mean ± SD, n = 3, listed as ramipril, SD): 23.23 ± 0.44%; ACE inhibitory activity ([1]; ramipril 50 µg/mL, replicate 1): 22.79%; ACE inhibitory activity ([1]; ramipril 50 µg/mL, replicate 2): 23.23%; ACE inhibitory activity ([1]; ramipril 50 µg/mL, replicate 3): 23.67%
2 | EIILIPMF [P3, synthesized peptide identified from jellyfish fraction PUR20C] | 2.93 TE/mg protein | 2.84 | 2.58 | 3.37 | 3.17 TE/mg protein | 3.31 | 2.71 | 3.51 | 9.31 | 9.31 | 9.10 | 33.58 | 33.87 | 34.16 | 37.58 | 35.17 | 37.24 | 36.66 ± 1.30 µM | 75.57 | 75.92 | FRAP [4, 7]: 9.24±0.12 mM FeSO4/mg protein; ACE inhibitory activity, mean±SD [1, 8]: 33.87±0.28^E %; Cell viability (RAW 264.7 [6]; replicate 3): 75.39%
3 | LMFMAVAFF [P12, synthesized peptide identified from jellyfish fraction PUR20C] | 2.75 TE/mg protein | 2.58 | 2.58 | 3.11 | 0.64±0.30^M TE/mg protein | 0.90 | 0.30 | 0.70 | 16.26 | 17.31 | 16.68 | 49.61 | 43.60 | 49.33 | 36.89 | 38.62 | 40.00 | 38.50±1.55^B µM | 76.97 | 73.98 | FRAP [4, 7]: 16.75±0.52^B mM FeSO4/mg protein; ACE inhibitory activity, mean±SD [1, 8]: 47.51±3.39^D %; Cell viability (RAW 264.7 [6]; replicate 3): 74.86%
4 | NFTVLCDSLE [P10, synthesized peptide identified from jellyfish fraction PUR20C] | 45.99±1.10^B TE/mg protein | 46.34 | 44.75 | 46.87 | 98.00±0.50^G TE/mg protein | 97.47 | 98.07 | 98.47 | 20.05 | 21.10 | 18.36 | 11.25 | 9.82 | 8.39 | 35.86 | 35.17 | 38.27 | 36.43 µM | 85.41 | 84.35 | inhibition [1, 8]: 9.82 ± 1.43%; Cell viability, mean±SD (RAW 264.7 [6]; relative to untreated cells, mean ± SD, n = 3, SD): 85.35%; Cell viability (RAW 264.7 [6]; replicate 3): 86.29%
